{"source": "patent US3983105A", "about": "“Penicillins” (Bayer Aktiengesellschaft, priority 1971, dated 1976)", "key": {"Pseudomonas aeruginosa": {"system": "Pseudomonas aeruginosa", "experiment": "MIC, test tube serial dilution, Pseudomonas aeruginosa", "type": "cell-based", "details": "24 hours, 37°C"}, "Klebsiella-Aerobacter": {"system": "Klebsiella-Aerobacter", "experiment": "MIC, test tube serial dilution, Klebsiella-Aerobacter", "type": "cell-based", "details": "24 hours, 37°C"}, "Escherichia coli": {"system": "Escherichia coli", "experiment": "MIC, test tube serial dilution, Escherichia coli", "type": "cell-based", "details": "24 hours, 37°C"}, "Proteus morganii": {"system": "Proteus morganii", "experiment": "MIC, test tube serial dilution, Proteus morganii", "type": "cell-based", "details": "strain 932; 24 hours, 37°C"}, "Proteus vulgaris": {"system": "Proteus vulgaris", "experiment": "MIC, test tube serial dilution, Proteus vulgaris", "type": "cell-based", "details": "unit assumed"}, "Streptococcus faecalis": {"system": "Streptococcus faecalis", "experiment": "MIC, test tube serial dilution, Streptococcus faecalis", "type": "cell-based", "details": "ATCC 9790; 24 hours, 37°C"}, "Staphylococcus aureus": {"system": "Staphylococcus aureus", "experiment": "MIC, test tube serial dilution, Staphylococcus aureus", "type": "cell-based", "details": "24 hours, 37°C"}, "in vivo": {"experiment": "in vivo", "details": "mouse, iv"}}, "note": "“And” between values parts separate entries of the source, which are not always exact repeats. Identical values can stand only once."}
{"smiles": "CNC(=O)N1CCN(C(=O)N[C@@H](C(=O)N[C@@H]2C(=O)N3[C@@H]2SC(C)(C)[C@@H]3C(=O)O)c2ccccc2)C1=O", "note": "[Example 2, Sodium D(-)-α-[(3-methylaminocarbonyl-imidazolidin-2-on-1-yl)-carbonylamino]-benzylpenicillin]", "values": [{"measurement": "MIC", "setting": "Pseudomonas aeruginosa; strain Bonn", "value": 50, "unit": "U/ml"}, {"measurement": "MIC", "setting": "Pseudomonas aeruginosa; strain Walter", "value": 25, "unit": "U/ml"}, {"measurement": "MIC", "setting": "Klebsiella-Aerobacter; strain 63", "value": "12.5 U/ml and 12 U/ml"}, {"measurement": "MIC", "setting": "Klebsiella-Aerobacter; strain K 10", "value": 50, "unit": "U/ml"}, {"measurement": "MIC", "setting": "Escherichia coli; strain 183/58", "value": 1.6, "unit": "U/ml"}, {"measurement": "MIC", "setting": "Escherichia coli; strain A 261", "value": 100, "unit": "U/ml"}, {"measurement": "MIC", "setting": "Escherichia coli; strain C 165", "value": 1.6, "unit": "U/ml"}, {"measurement": "MIC", "setting": "Proteus morganii", "value": 1.6, "unit": "U/ml"}, {"measurement": "MIC", "setting": "Proteus vulgaris", "value": 6, "unit": "µg/mL"}, {"measurement": "MIC", "setting": "Streptococcus faecalis", "value": 50, "unit": "U/ml"}, {"measurement": "MIC", "setting": "Staphylococcus aureus; strain 133", "value": "< 0.8", "unit": "U/ml"}, {"measurement": "MIC", "setting": "Staphylococcus aureus; strain 1756 (BRL 1 756)", "value": 200, "unit": "U/ml"}, {"measurement": "LD50", "setting": "in vivo", "value": 3000, "unit": "mg/kg"}]}
